Assay results from patent publication US6416780B1 (Galen (Chemicals) Limited, priority 1997, dated 2002).
Like-named read-outs stand apart in the source and are kept apart here.

Assays:
[1] = Example 2 rings; 1.0% BKC versus 0.9% saline
[2] = for sink conditions in 0.9% saline: rings of Examples 1 and 2, 250 ml, 37° C.; for In vitro release into 0.9% saline (as total testosterone): core loading 10% w/w testosterone
Experimental: The rings were tested in vitro at a constant temperature of 37° C. for their release characteristics in a sufficient volume (250 ml) of each of the following media: 0.9% (w/v) saline and 1.0% (w/v) aqueous benzalkonium chloride (BKC).
Thus, each ring was suspended by a thread in an individual enclosed flask containing the dissolution medium, maintained at a constant temperature of 37° C. The contents of the flask were gently agitated in order to prevent the occurrence of a hydrostatic layer on the surface of the ring. After 24 hours (±30 minutes), the ring was removed and suspended in a flask of fresh dissolution medium of identical volume.

[3] = In vitro release from Example 5 testosterone-17-propionate ring into 0.9% saline over 26 days; assay type: physicochemical; settings: for In Vitro Release of Testosterone-17-propionate, Release Rate: Example 5 ring core length 90 mm
[4] = human female, cited from earlier work
[5] = In vitro release from Example 3 rings into 0.9% saline over 30 days; assay type: physicochemical; settings: 30 day monitoring period
[6] = In vitro release from Example 6 pessary bullets into 0.9% saline; settings: following an initial burst phase

CC(=O)O[C@H]1CC[C@H]2[C@@H]3CCC4=CC(=O)CC[C@]4(C)[C@H]3CC[C@]12C [testosterone-17-acetate]
in vitro release rates into BKC compared with saline [1]: considerably higher than those into saline
sink conditions in 0.9% saline [2]: ‘non-sink conditions’ exist in saline

CCC(=O)O[C@H]1CC[C@H]2[C@@H]3CCC4=CC(=O)CC[C@]4(C)[C@H]3CC[C@]12C [testosterone-17-propionate]
In Vitro Release of Testosterone-17-propionate, Release Rate ([3]; 0.9% saline, day 2): 171 µg/day
In Vitro Release of Testosterone-17-propionate, Release Rate ([3]; 0.9% saline, day 3): 328 µg/day
In Vitro Release of Testosterone-17-propionate, Release Rate ([3]; 0.9% saline, day 4): 337 µg/day
In Vitro Release of Testosterone-17-propionate, Release Rate ([3]; 0.9% saline, day 5): 465 µg/day
In Vitro Release of Testosterone-17-propionate, Release Rate ([3]; 0.9% saline, day 7): 457 µg/day
In Vitro Release of Testosterone-17-propionate, Release Rate ([3]; 0.9% saline, day 13): 527 µg/day
In Vitro Release of Testosterone-17-propionate, Release Rate ([3]; 0.9% saline, day 14): 587 µg/day
In Vitro Release of Testosterone-17-propionate, Release Rate ([3]; 0.9% saline, day 19): 585 µg/day
In Vitro Release of Testosterone-17-propionate, Release Rate ([3]; 0.9% saline, day 20): 663 µg/day
In Vitro Release of Testosterone-17-propionate, Release Rate ([3]; 0.9% saline, day 26): 637 µg/day
lag phase of in vitro release ([3]; Example 5 ring, freshly made, 0.9% saline): 13 days
in vitro release pattern ([3]; Example 5 ring, 0.9% saline, 13 day monitoring after the lag phase): substantially zero order pattern
amounts released compared with testosterone ([3]; intravaginal rings, high dose applications): amounts released are greater

C[C@]12CC[C@H]3[C@@H](CCC4=CC(=O)CC[C@@]43C)[C@@H]1CC[C@@H]2O [testosterone]
In vitro release into 0.9% saline (as total testosterone) ([2]; ring core length 30 mm, day 2): 270 µg/day
In vitro release into 0.9% saline (as total testosterone) ([2]; ring core length 30 mm, day 3): 232 µg/day
In vitro release into 0.9% saline (as total testosterone) ([2]; ring core length 30 mm, day 5): 237 µg/day
In vitro release into 0.9% saline (as total testosterone) ([2]; ring core length 30 mm, day 8): 228 µg/day
In vitro release into 0.9% saline (as total testosterone) ([2]; ring core length 30 mm, day 9): 229 µg/day
In vitro release into 0.9% saline (as total testosterone) ([2]; ring core length 30 mm, day 10): 226 µg/day
In vitro release into 0.9% saline (as total testosterone) ([2]; ring core length 30 mm, day 13): 238 µg/day
In vitro release into 0.9% saline (as total testosterone) ([2]; ring core length 30 mm, day 15): 227 µg/day
In vitro release into 0.9% saline (as total testosterone) ([2]; ring core length 30 mm, day 16): 216 µg/day
In vitro release into 0.9% saline (as total testosterone) ([2]; ring core length 30 mm, day 17): 224 µg/day
In vitro release into 0.9% saline (as total testosterone) ([2]; ring core length 60 mm, day 2): 471 µg/day
In vitro release into 0.9% saline (as total testosterone) ([2]; ring core length 60 mm, day 3): 401 µg/day
In vitro release into 0.9% saline (as total testosterone) ([2]; ring core length 60 mm, day 5): 419 µg/day
In vitro release into 0.9% saline (as total testosterone) ([2]; ring core length 60 mm, day 8): 400 µg/day
In vitro release into 0.9% saline (as total testosterone) ([2]; ring core length 60 mm, day 9): 407 µg/day
In vitro release into 0.9% saline (as total testosterone) ([2]; ring core length 60 mm, day 10): 406 µg/day
In vitro release into 0.9% saline (as total testosterone) ([2]; ring core length 60 mm, day 13): 430 µg/day
In vitro release into 0.9% saline (as total testosterone) ([2]; ring core length 60 mm, day 15): 408 µg/day
In vitro release into 0.9% saline (as total testosterone) ([2]; ring core length 60 mm, day 16): 392 µg/day
In vitro release into 0.9% saline (as total testosterone) ([2]; ring core length 60 mm, day 17): 388 µg/day
In vitro release into 0.9% saline (as total testosterone) ([2]; ring core length 90 mm, day 2): 696 µg/day
In vitro release into 0.9% saline (as total testosterone) ([2]; ring core length 90 mm, day 3): 572 µg/day
In vitro release into 0.9% saline (as total testosterone) ([2]; ring core length 90 mm, day 5): 588 µg/day
In vitro release into 0.9% saline (as total testosterone) ([2]; ring core length 90 mm, day 8): 592 µg/day
In vitro release into 0.9% saline (as total testosterone) ([2]; ring core length 90 mm, day 10): 581 µg/day
In vitro release into 0.9% saline (as total testosterone) ([2]; ring core length 90 mm, day 13): 623 µg/day
In vitro release into 0.9% saline (as total testosterone) ([2]; ring core length 90 mm, day 15): 595 µg/day
In vitro release into 0.9% saline (as total testosterone) ([2]; ring core length 90 mm, day 16): 584 µg/day
In vitro release into 0.9% saline (as total testosterone) ([2]; ring core length 90 mm, day 17): 612 µg/day
sink conditions in 0.9% saline [2]: ‘Sink conditions’ were evident
testosterone delivered per day ([4]; matrix (non-rate controlled) transdermal system, per day): about 1000 μg
mean circulating plasma testosterone levels ([4]; matrix transdermal system delivering about 1000 μg per day): 4 to 6 nM
in vitro release pattern [5]: substantially zero order pattern
in vitro release pattern [6]: substantially zero order release
